{
  "source": "patent US5057414A",
  "about": "“Method for the determination of the activity of serine proteases or serine protease inhibitors” (Behringwerke Aktiengesellschaft, priority 1987, dated 1991)",
  "key": {"[1]": {"biological_target": "T1, plasmin and alpha2-antiplasmin (Homo sapiens, UniProt P00747)", "T1 construct": "native proteins", "T1 sequence (P00747 97-810, one chain of several)": "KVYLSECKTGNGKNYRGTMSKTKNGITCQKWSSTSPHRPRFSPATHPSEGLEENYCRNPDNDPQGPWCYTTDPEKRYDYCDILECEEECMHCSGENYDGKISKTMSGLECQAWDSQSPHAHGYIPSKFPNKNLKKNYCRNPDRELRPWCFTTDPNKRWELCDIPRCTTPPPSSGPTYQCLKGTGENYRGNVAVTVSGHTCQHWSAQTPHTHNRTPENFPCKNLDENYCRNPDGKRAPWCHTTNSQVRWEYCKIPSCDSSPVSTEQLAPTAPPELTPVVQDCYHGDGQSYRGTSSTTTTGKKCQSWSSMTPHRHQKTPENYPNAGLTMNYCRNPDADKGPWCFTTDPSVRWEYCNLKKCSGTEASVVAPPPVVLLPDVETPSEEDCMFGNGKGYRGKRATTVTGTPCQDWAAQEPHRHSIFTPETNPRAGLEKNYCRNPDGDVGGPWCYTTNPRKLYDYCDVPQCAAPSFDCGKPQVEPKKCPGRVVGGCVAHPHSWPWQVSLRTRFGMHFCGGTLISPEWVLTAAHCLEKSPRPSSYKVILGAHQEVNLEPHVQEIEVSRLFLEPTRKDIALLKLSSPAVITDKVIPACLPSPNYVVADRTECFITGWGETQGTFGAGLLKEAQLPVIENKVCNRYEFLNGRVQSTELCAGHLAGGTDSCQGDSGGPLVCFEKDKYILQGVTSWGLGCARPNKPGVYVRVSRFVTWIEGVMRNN", "assay": "Slowing of the reaction between plasmin and alpha2-antiplasmin by omega-amino carboxylic acids", "format": "biochemical", "details": "lysine 10 to 3,000 mM, epsilon-aminocaproic acid 2 to 500 mM, tranexamic acid 0.1 to 50 mM"}, "[2]": {"system": "plasmin", "assay": "Comparison Experiments 5, 6, 8: optimization of reagent concentration in functional PAI (PA) determination (generated plasmin activity)", "format": "biochemical", "method": "(§1) Preincubation of 50 μl of sample with 200 μl of a variant of solution C (plasminogen activator dissolved in basic buffer U) at 37° C. for five minutes was followed by addition of 200 μl of a variant of plasminogen reagent (F), composed of 100 mM Tris-HCl pH 8.4, crosslinked polypeptides 1%, ^R Triton×100 0.1%, 100 mM NaCl without tran-examic acid, NaN3 0.01 % (basic buffer U) with 10 CTA-U/ml plasminogen and 200 μl of distilled water with 10 mM chloramine T, 3 mM tranexamic acid to the reaction mixture. The mixture was incubated at 37° C. for 5 min, and 500 μl of 0.6 mM chromogenic plasmin substrate HD-Nva-CHA-Lys-pNA in 480 mM NaCl (or, as a substitute, 200 mM CsCl) were added. The resultant linear change in extinction, delta A/min, at 405 nm was followed."}, "[3]": {"system": "human alpha-thrombin", "assay": "Comparison Experiment 13: oxidation resistance of thrombin", "format": "biochemical", "details": "500 nmol of chloramine T or 500 times the dose of H202"}, "[4]": {"system": "antithrombin III (AT III)", "assay": "Comparison Experiment 13: oxidative inactivation of antithrombin III", "format": "biochemical", "details": "37° C., 15 min preincubation, pH 8.8", "method": "50 pmol of AT III in 50 μl of 50 mM Tris, 100 mM NaCl, 0.1% (w/v) Triton×100, pH 8.8 buffer, are preincubated with increasing quantities of chloramine T or hydrogen peroxide in 50 μl of distilled water at 37° C. for 15 min. Then 3 pmol of human alpha-thrombin, 2.5 IU of heparin and 2 KIU of aprotinin in 500 μl of 100 mM Tris, 150 mM NaCl, pH 8.2, are added, and the mixture is incubated at 37° C. for 5 min. Addition of 500 μl of 0.4 mM H-D-CHA-But-ArgpNA was followed by further incubation for 3 min (37° C.). The reaction was stopped by 100 μl of 8.5 M acetic acid, and the change in extinction at 405 nm was determined."}, "[5]": {"system": "plasminogen activator inhibitors", "details": "Lawrence and Loskutoff, Biochemistry 25, 6351-6355, 1986; cited from earlier work"}, "[6]": {"system": "urokinase", "assay": "Comparison Experiment 1: conversion of chromogenic plasmin substrate / activity of urokinase in plasma with lysine and/or ammonium peroxodisulfate", "format": "biochemical", "method": "50μl of a plasma which is deficient in alpha2 -antiplasmin and has been prepared by immunoadsorption, as well as 1:2, 1:4 and 1:8 mixtures of this deficient plasma with normal plasma, where mixed with 200 μl or solution C (plasminogen activator reagent).\n[…] of a 3 mM solution of H-D-Phe-Tyr-Arg-ANBA . 2 HCl in solution A and 500 µl of a plasminogen solution (2 CTA-U/ml) in solution A were added to the samples, the mixtures were incubated at 37° C. for 20 min, subsequently 100 μL of 8.5 M acetic acid were used to stop, and the extinction at 405 nm was determined. […] It is evident that addition of lysine increases the activity of urokinase by more than 100%."}, "[7]": {"system": "PAI1", "assay": "Example 5a: determination of PAI2 via preincubation with polycation-containing PA reagent", "format": "biochemical", "details": "protamine chloride 100 U/ml or polylysine 500 μg/ml"}, "[8]": {"system": "plasmin", "assay": "Comparison Experiment 11: effect of chloramine T and/or tranexamic acid on plasmin activity in the functional PAI assay", "format": "biochemical", "details": "for delta A/4 min: 405 nm", "method": "as §1"}, "[9]": {"system": "urokinase", "assay": "Example 4: oxidation sensitivity of PAI1 and PAI2 (oxidation before addition of plasminogen activator reagent)", "format": "biochemical", "details": "oxidation with chloramine T before addition of plasminogen activator reagent", "method": "50 μl of sample were incubated with 500 μl of solution A (basic buffer) and 50 μl of solution B (oxidizing reagent) at 37° C. for 10 min. Addition of 200 μl of solution C (plasminogen activator reagent) was followed by incubation at 37° C. for 5 min. The substrate conversion was started by addition of 200 μl of solution E (plasmin substrate reagent) and 100 μl of solution F (plasminogen reagent) and the mixture was incubated at 37° C. for 15 min. After addition of 100 μl of 8.5 M acetic acid, the extinction at 405 nm was determined."}, "[10]": {"system": "plasmin", "details": "Shieh and Travis, J.Biol.Chem. 262, 6055-6059, 1987; cited from earlier work"}, "[11]": {"system": "plasmin", "assay": "Oxidative inactivation of alpha2-antiplasmin", "format": "biochemical", "text": "Accurate determination of the said proteins requires that specific and non-specific plasmin inhibitors be quantitatively inactivated. […] This effect corresponds to expectations inasmuch as the plasminogen activator inhibitors belong to the family of serine protease inhibitors (serpins) whose archetype, namely alpha1 -protease inhibitor, contains an oxidizable methionine in the active center. Oxidation of this methionine results in a methionine sulfoxide, and the inhibitory functions are lost with the formation thereof. Lawrence and Loskutoff show, both for alpha1 -protease inhibitor and for plasminogen activator inhibitor, that the inactivation is reversible by treatment with dithiothreitol and methionine-sulfoxide-peptide reductase, i.e. under the conditions described therein the plasminogen activator inhibitor is demonstrably inactivated by oxidation. It was all the less to be expected that the complexes of plasminogen activator and plasminogen activator inhibitor produced in the reaction remain intact even under the oxidizing conditions according to the invention. […] Furthermore, it is very remarkable that the reaction of a non-inhibited plasminogen activator with its substrate, a natural or synthetic plasminogen, as well as the enzymatic reactions dependent thereon, take place undisturbed during the oxidation process."}},
  "data": [
    {"molecule": "NCCCCCC(=O)O", "note": "[epsilon-aminocaproic acid]", "values": [
      {"measurement": "factor by which the reaction between plasmin and alpha2-antiplasmin is slowed down", "setting": "[1]", "value": "at least 10"}
    ]},
    {"molecule": "O=S(=O)(NCl)c1ccccc1", "note": "[chloramine B]", "values": [
      {"measurement": "results with chloramine B in place of chloramine T", "setting": "[2]; Comparison Experiment 5b", "value": "the same as represented for chloramine T"}
    ]},
    {"molecule": "OO", "note": "[hydrogen peroxide]", "values": [
      {"measurement": "activity of thrombin at the dose inactivating AT III", "setting": "[3]", "value": "without the activity of thrombin being impaired"},
      {"measurement": "dose of hydrogen peroxide inactivating 50 pmol of AT III, as a multiple", "setting": "[4]", "value": 500, "unit": "times the dose"},
      {"measurement": "concentration inactivating plasminogen activator inhibitors", "setting": "[5]", "value": "about 10 mM"}
    ]},
    {"molecule": "N.N.O=S(=O)(O)OOS(=O)(=O)O", "note": "[ammonium peroxodisulfate]", "values": [
      {"measurement": "dependence of the conversion of the chromogenic plasmin substrate on the quantity of alpha2-antiplasmin in the plasma", "setting": "[6]; 5% (NH4)2S2O8 in distilled water", "value": "does not depend on the quantity of alpha2 -antiplasmin"}
    ]},
    {"molecule": "protamine chloride", "values": [
      {"measurement": "PAI measured in presence of polycation in the plasminogen activator reagent", "setting": "[7]", "value": "only PAI2 (and not PAI1) was measured"}
    ]},
    {"molecule": "NC[C@H]1CC[C@H](C(=O)O)CC1", "note": "[tranexamic acid]", "values": [
      {"measurement": "factor by which the reaction between plasmin and alpha2-antiplasmin is slowed down", "setting": "[1]", "value": "at least 10"},
      {"measurement": "increase in plasmin activity with alpha2-antiplasmin-deficient plasma compared with normal plasma", "setting": "[8]", "value": "about 70%"},
      {"measurement": "delta A/4 min", "setting": "[8]; Normal plasma without alpha2-antiplasmin", "value": 829, "unit": "mA"},
      {"measurement": "delta A/4 min", "setting": "[8]; Normal plasma", "value": 488, "unit": "mA"},
      {"measurement": "tranexamic acid concentration at maximum", "setting": "[2]; in the reaction mixture, basic buffer and PAI-deficient plasma", "value": "1 to 4", "unit": "mM"}
    ]},
    {"molecule": "NCCCC[C@H](N)C(=O)O", "note": "[lysine]", "values": [
      {"measurement": "factor by which the reaction between plasmin and alpha2-antiplasmin is slowed down", "setting": "[1]", "value": "at least 10"},
      {"measurement": "increase of the activity of urokinase", "setting": "[6]; addition of lysine (10% lysine in distilled water)", "value": "more than 100%"},
      {"measurement": "increase in the extinction compared with the sample without omega-amino carboxylic acid", "setting": "[6]; without use of an oxidizing agent", "value": "more than 100%"}
    ]},
    {"molecule": "polylysine", "values": [
      {"measurement": "PAI measured in presence of polycation in the plasminogen activator reagent", "setting": "[7]", "value": "only PAI2 (and not PAI1) was measured"}
    ]},
    {"molecule": "PAI2: placental inhibitors: these include the inhibitors released from the placenta and leukocytes (protein, UniProt P05120 1-415, looked up) Plasminogen activator …: MEDLCVANTLFALNLFKHLAKASPTQNLFLSPWSISSTMAMVYMGSRGSTEDQMAKVLQFNEVGANAVTPMTPENFTSCGFMQQIQKGSYPDAILQAQAADKIHSSFRSLSSAINASTGNYLLESVNKLFGEKSASFREEYIRLCQKYYSSEPQAVDFLECAEEARKKINSWVKTQTKGKIPNLLPEGSVDGDTRMVLVNAVYFKGKWKTPFEKKLNGLYPFRVNSAQRTPVQMMYLREKLNIGYIEDLKAQILELPYAGDVSMFLLLPDEIADVSTGLELLESEITYDKLNKWTSKDKMAEDEVEVYIPQFKLEEHYELRSILRSMGMEDAFNKGRANFSGMSERNDLFLSEVFHQAMVDVNEEGTEAAAGTGGVMTGRTGHGGPQFVADHPFLFLIMHKITNCILFFGRFSSP", "values": [
      {"measurement": "sensitivity to oxidation", "setting": "[9]", "value": "less sensitive to oxidation"}
    ]},
    {"molecule": "alpha2 -antiplasmin: specific plasmin inhibitor (protein, UniProt P08697 40-491, looked up) Alpha-2-antiplasmin: NQEQVSPLTLLKLGNQEPGGQTALKSPPGVCSRDPTPEQTHRLARAMMAFTADLFSLVAQTSTCPNLILSPLSVALALSHLALGAQNHTLQRLQQVLHAGSGPCLPHLLSRLCQDLGPGAFRLAARMYLQKGFPIKEDFLEQSEQLFGAKPVSLTGKQEDDLANINQWVKEATEGKIQEFLSGLPEDTVLLLLNAIHFQGFWRNKFDPSLTQRDSFHLDEQFTVPVEMMQARTYPLRWFLLEQPEIQVAHFPFKNNMSFVVLVPTHFEWNVSQVLANLSWDTLHPPLVWERPTKVRLPKLYLKHQMDLVATLSQLGLQELFQAPDLRGISEQSLVVSGVQHQSTLELSEVGVEAAAATSIAMSRMSLSSFSVNRPFLFFIFEDTTGLPLFVGSVRNPNPSAPRELKEQQDSPGNKDFLQSLKGFPRGDKLFGPDLKLVPPMEEDYPQFGSPK", "values": [
      {"measurement": "resistance of alpha2-antiplasmin to oxidation", "setting": "[10]", "value": "resistant to oxidation"},
      {"measurement": "inactivation of alpha2-antiplasmin under the oxidizing conditions of the invention", "setting": "[11]", "value": "nearly completely inactivated"}
    ]}
  ]
}
